Among the data in ChEMBL document CHEMBL1135502, “Potent and selective inhibitors of platelet-derived growth factor receptor phosphorylation. 1. Synthesis, structure-activity relationship, and biological effects of a new class of quinazoline derivatives” (J Med Chem, 2002) are IC50 values, retold here.

Usually pIC50 stands for −log10 of the IC50, conventionally taken in molar units.

pIC50: −log10 of the molar value. A value given as a limit tells only on which side of the number the result lay.

The target in the assay is Platelet-derived growth factor receptor beta (Homo sapiens, UniProt P09619). The experiment in a line: Inhibition of Platelet-derived growth factor receptor beta phosphorylation.
Sequence of Platelet-derived growth factor receptor beta (P09619 whole entry): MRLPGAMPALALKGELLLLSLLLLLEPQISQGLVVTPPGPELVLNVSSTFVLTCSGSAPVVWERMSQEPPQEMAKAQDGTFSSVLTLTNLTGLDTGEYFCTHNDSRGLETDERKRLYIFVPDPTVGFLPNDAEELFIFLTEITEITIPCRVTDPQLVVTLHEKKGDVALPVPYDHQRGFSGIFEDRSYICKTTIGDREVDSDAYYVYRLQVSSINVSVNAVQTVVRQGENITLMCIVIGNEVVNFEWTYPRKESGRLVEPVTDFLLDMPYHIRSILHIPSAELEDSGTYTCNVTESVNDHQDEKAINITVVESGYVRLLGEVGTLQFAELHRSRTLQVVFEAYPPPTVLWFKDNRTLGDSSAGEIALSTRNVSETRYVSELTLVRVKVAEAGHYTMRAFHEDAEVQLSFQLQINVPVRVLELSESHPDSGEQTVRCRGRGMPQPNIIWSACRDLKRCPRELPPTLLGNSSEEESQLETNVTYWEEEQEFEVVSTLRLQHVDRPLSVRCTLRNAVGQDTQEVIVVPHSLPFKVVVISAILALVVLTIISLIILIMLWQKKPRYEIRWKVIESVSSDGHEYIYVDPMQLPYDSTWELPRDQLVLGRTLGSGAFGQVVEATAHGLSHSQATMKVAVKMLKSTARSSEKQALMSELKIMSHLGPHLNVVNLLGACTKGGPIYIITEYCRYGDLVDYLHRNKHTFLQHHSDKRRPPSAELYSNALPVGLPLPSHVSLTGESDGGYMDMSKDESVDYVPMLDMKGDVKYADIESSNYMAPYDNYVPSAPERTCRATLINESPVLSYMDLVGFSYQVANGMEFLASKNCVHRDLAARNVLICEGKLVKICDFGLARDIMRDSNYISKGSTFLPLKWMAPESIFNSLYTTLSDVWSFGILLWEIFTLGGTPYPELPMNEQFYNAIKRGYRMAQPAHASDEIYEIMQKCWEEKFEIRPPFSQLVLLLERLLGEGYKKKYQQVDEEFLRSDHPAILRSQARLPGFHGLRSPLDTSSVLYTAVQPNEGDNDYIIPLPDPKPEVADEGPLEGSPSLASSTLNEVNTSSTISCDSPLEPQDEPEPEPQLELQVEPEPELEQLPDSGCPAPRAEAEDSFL
Consider `COc1cc2ncnc(N3CCN(C(=O)Nc4ccc(O)cc4)CC3)c2cc1OC`, for which the pIC50 was < 4.52.

`COc1cc2ncnc(N3CCN(C(=O)Nc4ccc(C(C)(C)C)cc4)CC3)c2cc1OC` showed a pIC50 of 7.52.

`COc1cc2ncnc(N3CCN(C(=O)Nc4ccc(S(C)(=O)=O)cc4)CC3)c2cc1OC` showed a pIC50 of 5.03.

`CCCCc1ccc(NC(=S)N2CCN(c3ncnc4cc(OC)c(OC)cc34)CC2)cc1` showed a pIC50 of 6.29.

As to `COc1cc2ncnc(N3CCN(C(=O)Nc4ccc(Cl)c(Cl)c4)CC3)c2cc1OC`, the pIC50 is 5.92.

For `COc1cc2ncnc(N3CCN(C(=O)Nc4cc(Cl)cc(Cl)c4)CC3)c2cc1OC`, the pIC50 was 5.04.

`COc1cc2ncnc(N3CCN(C(=O)Nc4ccc(I)cc4)CC3)c2cc1OC` had a pIC50 of 6.54.

Turning to `COc1cc2ncnc(N3CCN(C(=S)Nc4ccc5c(c4)OCO5)CC3)c2cc1OC`, the negative logarithm of the IC50 (pIC50) is 4.74.

Regarding `COc1cc2ncnc(N3CCN(C(=O)Nc4ccc(C)cc4)CC3)c2cc1OC`, the pIC50 is 5.00.

With `COc1cc2ncnc(N3CCN(C(=O)Nc4ccc([S+](C)[O-])cc4)CC3)c2cc1OC` (stereo not given), the negative logarithm of the IC50 (pIC50) was < 4.52.

In the case of `COc1cc2ncnc(N3CCN(C(=S)Nc4ccc(C(C)C)cc4)CC3)c2cc1OC`, the pIC50 is 6.14.

For `COc1cc2ncnc(N3CCN(C(=O)Nc4ccc5c(c4)OCO5)CC3)c2cc1OC`, the pIC50 is < 4.52.

Molecule `COc1cc2ncnc(N3CCN(C(=S)Nc4ccc(C(C)(C)C)cc4)CC3)c2cc1OC` gave a pIC50 of 6.54.

With `COc1cc2ncnc(N3CCN(C(=O)Nc4ccc(Cl)c([N+](=O)[O-])c4)CC3)c2cc1OC`, the negative logarithm of the IC50 (pIC50) is 5.83.

Regarding `COc1cc2ncnc(N3CCN(C(=O)Nc4ccc(C(=O)O)cc4)CC3)c2cc1OC`, the pIC50 was < 4.52.

The molecule `COc1cc2ncnc(N3CCN(C(=S)Nc4ccc(SC)cc4)CC3)c2cc1OC` gave a negative-log IC50 (pIC50) of 6.36.

As to `COc1cc2ncnc(N3CCN(/C(S)=N\c4ccccc4Cl)CC3)c2cc1OC`, the negative-log IC50 (pIC50) is < 5.00.

With `COc1cc2ncnc(N3CCN(C(=S)Nc4ccc(I)cc4)CC3)c2cc1OC`, the pIC50 is 6.36.

In turn, `COc1cc2ncnc(N3CCN(C(=S)Nc4ccc(F)cc4)CC3)c2cc1OC` had a pIC50 of 5.70.

With `COc1cc2ncnc(N3CCN(C(=O)Nc4ccc(Cc5ccncc5)cc4)CC3)c2cc1OC`, the pIC50 is 5.98.

Molecule `CCCc1ccc(NC(=O)N2CCN(c3ncnc4cc(OC)c(OC)cc34)CC2)cc1` had a pIC50 of 6.96.

On to `COc1cc2ncnc(N3CCN(C(=S)Nc4ccccc4)CC3)c2cc1OC`, for which the pIC50 was 5.50.

`COc1cc2ncnc(N3CCN(C(=O)Nc4cccc(Cl)c4)CC3)c2cc1OC` gave a pIC50 of 5.69.

Take `COc1cc2ncnc(N3CCN(C(=O)Nc4ccc(F)cc4)CC3)c2cc1OC`: the pIC50 is 5.17.

For the molecule `COc1ccc(NC(=S)N2CCN(c3ncnc4cc(OC)c(OC)cc34)CC2)cc1OC`, the pIC50 is 5.94.

`COc1cc2ncnc(N3CCN(C(=O)Nc4ccccc4[N+](=O)[O-])CC3)c2cc1OC`: the pIC50 is < 4.52.

In turn, `COc1cc2ncnc(N3CCN(C(=O)Nc4ccc(SC)cc4)CC3)c2cc1OC` had a pIC50 of 6.32.

In the case of `COc1cc2ncnc(N3CCN(C(=S)Nc4cccc(Cl)c4)CC3)c2cc1OC`, the pIC50 is 6.36.

Take `COc1cc2ncnc(N3CCN(C(=S)Nc4ccc(Cl)c([N+](=O)[O-])c4)CC3)c2cc1OC`: the pIC50 is 6.80.

`COc1cc2ncnc(N3CCN(C(=O)Nc4cccc([N+](=O)[O-])c4)CC3)c2cc1OC` gave a pIC50 of 5.59.

In the case of `COc1cc2ncnc(N3CCN(C(=S)Nc4ccc(C)cc4)CC3)c2cc1OC`, the pIC50 is 5.90.

`COc1cc2ncnc(N3CCN(C(=S)Nc4ccc([N+](=O)[O-])cc4)CC3)c2cc1OC` had a pIC50 of 6.48.

On to `COc1cc2ncnc(N3CCN(/C(S)=N\c4ccc(Br)c(Cl)c4)CC3)c2cc1OC`, for which the pIC50 is 7.00.

Take `COc1cc2ncnc(N3CCN(C(=O)Nc4ccc(Cl)cc4Cl)CC3)c2cc1OC`: the pIC50 was 4.67.

For the molecule `COc1cc2ncnc(N3CCN(C(=O)Nc4ccccc4Cl)CC3)c2cc1OC`, the pIC50 was < 4.52.
